{"source": "patent US7067624B2", "about": "“Antimicrobial proteins” (Commonwealth Scientific and Industrial Research Organisation, priority 1996, dated 2006)", "key": {"fungi and bacteria": {"test_system": "fungi and bacteria", "assay": "Antifungal and antibacterial activity bioassays, results in words", "format": "cell-based", "conditions": "for antimicrobial / antifungal activity (in words): bioassays as in Example 2"}, "[1]": {"test_system": "Phytophthora parasitica nicotiana", "assay": "Antifungal growth inhibition bioassay (96-well, A600)", "format": "cell-based"}, "[2]": {"test_system": "Pseudomonas syringae tabaci", "assay": "Antibacterial growth inhibition bioassay (96-well, A600)", "format": "cell-based"}, "Saccharomyces cerevisiae": {"test_system": "Saccharomyces cerevisiae", "assay": "Antifungal growth inhibition bioassay (96-well, A600)", "format": "cell-based"}, "Phytophthora cryptogea": {"test_system": "Phytophthora cryptogea", "assay": "Antifungal growth inhibition bioassay (96-well, A600)", "format": "cell-based"}, "Chalara elegans": {"test_system": "Chalara elegans", "assay": "Antifungal growth inhibition bioassay (96-well, A600)", "format": "cell-based"}, "Candida albicans": {"test_system": "Candida albicans", "assay": "Antifungal growth inhibition bioassay (96-well, A600)", "format": "cell-based"}, "Ceratocystis paradoxa": {"test_system": "Ceratocystis paradoxa", "assay": "Antifungal growth inhibition bioassay (96-well, A600)", "format": "cell-based"}, "Alternaria helianthi": {"test_system": "Alternaria helianthi", "conditions": "Table 1, no added Ca2+"}, "Ralstonia solanacearum": {"test_system": "Ralstonia solanacearum", "format": "cell-based"}, "Escherichia coli": {"test_system": "Escherichia coli", "assay": "Antibacterial growth inhibition bioassay (96-well, A600)", "format": "cell-based"}, "Cercospora nicotianae": {"test_system": "Cercospora nicotianae", "assay": "Antifungal growth inhibition bioassay (96-well, A600)", "format": "cell-based"}, "[3]": {"test_system": "Clavibacter michiganensis", "assay": "Antibacterial growth inhibition bioassay (96-well, A600)", "format": "cell-based"}, "[4]": {"conditions": "Table 1, 1 mM Ca2+ in test medium"}}, "note": "Where two headings read alike, the source gives them in different places. Where no end group is shown, it is not given here."}
{"substance": "RQRDPQQQAEQAQKRAQRRETE [MiAMP2c pep1]", "values": [{"measurement": "IC50 values, Ss", "setting": "Sclerotinia sclerotiorum", "result": ">50", "unit": "µg/mL"}, {"measurement": "antimicrobial / antifungal activity (in words)", "setting": "fungi and bacteria", "result": "little or no activity"}]}
{"substance": "MiAMP2c: 47-amino-acid antimicrobial protein purified from Macadamia integrifolia seeds; amino acids 118 to 164 of clone 3 (SEQ ID NO: 5) (RKQQKRYEEQQREDEEKYEERMKEGDNKRDPQQREYEDCRRHCEQQE; Partial mature peptide)", "values": [{"measurement": "IC50 + Ca^2+", "setting": "[1]; [4]", "result": ">50", "unit": "µg/mL"}, {"measurement": "IC50 (concentration at which 50% inhibition of growth was observed)", "setting": "[1]; Table 1, no added Ca2+", "result": "10 to 20", "unit": "µg/mL"}, {"measurement": "IC50 + Ca^2+", "setting": "[2]; [4]", "result": ">50", "unit": "µg/mL"}, {"measurement": "IC50 (concentration at which 50% inhibition of growth was observed)", "setting": "[2]; Table 1, no added Ca2+", "result": ">50", "unit": "µg/mL"}, {"measurement": "IC50 + Ca^2+", "setting": "Saccharomyces cerevisiae; [4]", "result": ">50", "unit": "µg/mL"}, {"measurement": "IC50 (concentration at which 50% inhibition of growth was observed)", "setting": "Saccharomyces cerevisiae; Table 1, no added Ca2+", "result": "20 to 50", "unit": "µg/mL"}, {"measurement": "IC50 + Ca^2+", "setting": "Fusarium oxysporum; Table 1, Fusarium oxysporum, 1 mM Ca2+ in test medium", "result": "20 to 50", "unit": "µg/mL"}, {"measurement": "IC50 values, Foc", "setting": "Fusarium oxysporum; Table 2, Fusarium oxysporum, media A without added Ca2+", "result": 10, "unit": "µg/mL"}, {"measurement": "IC50 + Ca^2+", "setting": "Phytophthora cryptogea; [4]", "result": "10 to 25", "unit": "µg/mL"}, {"measurement": "IC50 (concentration at which 50% inhibition of growth was observed)", "setting": "Phytophthora cryptogea; Table 1, no added Ca2+", "result": "5 to 10", "unit": "µg/mL"}, {"measurement": "IC50 + Ca^2+", "setting": "Chalara elegans; [4]", "result": "10 to 20", "unit": "µg/mL"}, {"measurement": "IC50 (concentration at which 50% inhibition of growth was observed)", "setting": "Chalara elegans; Table 1, no added Ca2+", "result": "2 to 5", "unit": "µg/mL"}, {"measurement": "IC50 + Ca^2+", "setting": "Candida albicans; [4]", "result": ">50", "unit": "µg/mL"}, {"measurement": "IC50 (concentration at which 50% inhibition of growth was observed)", "setting": "Candida albicans; Table 1, no added Ca2+", "result": ">50", "unit": "µg/mL"}, {"measurement": "IC50 + Ca^2+", "setting": "Sclerotinia sclerotiorum; Table 1, Sclerotinia sclerotiorum, 1 mM Ca2+ in test medium", "result": ">50", "unit": "µg/mL"}, {"measurement": "IC50 (concentration at which 50% inhibition of growth was observed)", "setting": "Sclerotinia sclerotiorum; Table 1, Sclerotinia sclerotiorum, no added Ca2+", "result": "20 to 50", "unit": "µg/mL"}, {"measurement": "IC50 values, Ss", "setting": "Sclerotinia sclerotiorum; Table 2, Sclerotinia sclerotiorum, media A without added Ca2+", "result": "20 to 50", "unit": "µg/mL"}, {"measurement": "IC50 + Ca^2+", "setting": "Ceratocystis paradoxa; [4]", "result": ">50", "unit": "µg/mL"}, {"measurement": "IC50 (concentration at which 50% inhibition of growth was observed)", "setting": "Ceratocystis paradoxa; Table 1, no added Ca2+", "result": "20 to 50", "unit": "µg/mL"}, {"measurement": "IC50 values, Cp", "setting": "Ceratocystis paradoxa; Table 2, media A without added Ca2+", "result": "20 to 50", "unit": "µg/mL"}, {"measurement": "IC50 (concentration at which 50% inhibition of growth was observed)", "setting": "Alternaria helianthi", "result": "5 to 10", "unit": "µg/mL"}, {"measurement": "IC50 + Ca^2+", "setting": "Verticillium dahliae; Table 1, Verticillium dahliae, 1 mM Ca2+ in test medium", "result": ">50", "unit": "µg/mL"}, {"measurement": "IC50 (concentration at which 50% inhibition of growth was observed)", "setting": "Verticillium dahliae; Table 1, Verticillium dahliae, no added Ca2+", "result": "5 to 10", "unit": "µg/mL"}, {"measurement": "IC50 values, Vd", "setting": "Verticillium dahliae; Table 2, Verticillium dahliae, media A without added Ca2+", "result": "5 to 10", "unit": "µg/mL"}, {"measurement": "IC50 + Ca^2+", "setting": "Ralstonia solanacearum; [4]", "result": ">50", "unit": "µg/mL"}, {"measurement": "IC50 (concentration at which 50% inhibition of growth was observed)", "setting": "Ralstonia solanacearum; Table 1, no added Ca2+", "result": ">50", "unit": "µg/mL"}, {"measurement": "effect of Ca2+ on inhibitory activity (in words)", "setting": "fungi and bacteria; 1 mM Ca2+ in the test medium", "result": "greatly reduced (although not eliminated)"}, {"measurement": "IC50 + Ca^2+", "setting": "Escherichia coli; [4]", "result": ">50", "unit": "µg/mL"}, {"measurement": "IC50 (concentration at which 50% inhibition of growth was observed)", "setting": "Escherichia coli; Table 1, no added Ca2+", "result": ">50", "unit": "µg/mL"}, {"measurement": "IC50 + Ca^2+", "setting": "Cercospora nicotianae; [4]", "result": "5 to 10", "unit": "µg/mL"}, {"measurement": "IC50 (concentration at which 50% inhibition of growth was observed)", "setting": "Cercospora nicotianae; Table 1, no added Ca2+", "result": "5 to 10", "unit": "µg/mL"}, {"measurement": "IC50 + Ca^2+", "setting": "[3]; [4]", "result": ">50", "unit": "µg/mL"}, {"measurement": "IC50 (concentration at which 50% inhibition of growth was observed)", "setting": "[3]; Table 1, no added Ca2+", "result": 50, "unit": "µg/mL"}]}
{"substance": "PRHMQIAQQRAERRAEKEKRKQQKR [MiAMP2c pep2]", "values": [{"measurement": "IC50 values, Foc", "setting": "Fusarium oxysporum", "result": "10 to 20", "unit": "µg/mL"}, {"measurement": "IC50 values, Ss", "setting": "Sclerotinia sclerotiorum", "result": 50, "unit": "µg/mL"}, {"measurement": "IC50 values, Vd", "setting": "Verticillium dahliae", "result": "10 to 20", "unit": "µg/mL"}, {"measurement": "IC50 values, Lm", "setting": "Leptosphaeria maculans", "result": "10 to 20", "unit": "µg/mL"}, {"measurement": "antimicrobial / antifungal activity (in words)", "setting": "fungi and bacteria", "result": "inhibitory activity against a variety of fungi"}]}
